Results on two compounds are retold here after US12194078B2, “Methods and compositions related to combined treatment with anti-inflammatories and synthetic nanocarriers comprising an immunosuppressant” (Cartesian Therapeutics, Inc., priority 2017, dated 2025).

Where two headings read alike, the source gives them in different places.

Data set [1] is described as follows: Combination assessment of flare frequency and AUC of mean sUA. The data set is classed as in vivo, human. As for the experimental part:
Anti-drug antibodies (ADAs) can be a complication with treatment with soluble therapeutic proteins, such as the possibility of reduced efficacy. In addition, with treatment of subjects with conditions associate with gout, gout flares can increase when efficacy is increased. […] Specifically, a combination assessment of glare frequency as well as the area under the curve of mean sUA (serum uric acid) levels over time was performed. The finding of both improved efficacy and reduced gout flares was surprising with the SEL-212 study drug and anti-inflammatory treatment.
The tabulated data outlining the comparison in flare frequency between the different medications alongside their efficacy in reducing serum uric acid (sUA) is compiled in Table 4.
In addition, a combination assessment of glare frequency as well as the area under the cruve of mean sUA levels over time show both improved efficacy and reduced gout flares. […] Here, with the SEL-212 study drug and anti-inflammatory treatment, both efficacy and gout flare reduction can be achieved.

Data set [2] concerns patients with hyperuricemia and gout. As to conditions: first 8 weeks, cited from earlier work.
Data set [3] has the same test system. The experiment in a line: Phase 3 febuxostat trial: gout flares, first 8 weeks. The data set is classed as in vivo, human. The following applies: first 8 weeks with gout flare prophylaxis. From the text:
(§1) Further comparisons can be made with the primary branded oral uric acid lowering medication, febuxostat. In a phase 3, randomized, double-blind, multi-center trial, the safety and efficacy of febuxostat was studied over 52 weeks (Michael A. Becker, M. D., H. Ralph Schumacher, Jr., M. D., Robert L. Wortmann, M. D., Patricia A. MacDonald, B. S. N., N. P., Denise Eustace, B. A., William A. Palo, M. S., Janet Streit, M. S., and Nancy Joseph-Ridge, M. D. Febuxostat Compared with Allopurinol in Patients with Hyperuricemia and Gout. N Engl J Med 2005; 353:2450-2461Dec. 8, 2005). The comparison period for this analysis included only the first 8 weeks of that study, when gout flare prophylaxis (naproxen or colchicine) was administered. Data points were identified using a graph digitizer for FIG. 1 of the above reference. At a dose of 80 mg/day, 55 out of 255 subjects required treatment for at least one gout flare. This would be the equivalent to a flare frequency of at least 0.22 flares per patient month, and possibly more. At a dose of 120 mg/day, 90 out of 250 subjects required treatment for at least one gout flare, equating to at least a flare frequency of 0.36 flares per patient month, and possibly more.

Data set [4] concerns serum uric acid (sUA). Put plainly: Phase 3 febuxostat trial: AUC of mean sUA levels over time. It counts as in vivo, human. The following applies: data points from graph digitizer.
Source text: as §1, with “The comparison period for this analysis included only the first 8 weeks of that study, when gout flare prophylaxis (naproxen or colchicine) was administered.” left out

For the next data set, the system named is ADAs. The following applies: all KRYSTEXXA-treated subjects; cited from earlier work.
The subject of data set [5] is patients with chronic gout refractory to conventional treatment. As to conditions: cited from earlier work.
The subject of another data set is uric acid. The following applies: cited from earlier work.
Data set [6] concerns serum uric acid (sUA). Put plainly: Phase 3 pegloticase trials: AUC of mean sUA levels over time. It counts as in vivo, human. Also on record: AUC of mean sUA levels, responders / AUC of mean sUA levels, non-responders: unit not given beside the values. As to conditions: for Area Under Curve of Mean sUA Levels Over Time Up to 20 Weeks: combined weighted average for responders and non-responders, digitized, extrapolated to 20 weeks. As for the experimental part:
For comparison, the Phase 3 pegloticase trials (John S. Sundy, MD, PhD; Herbert S. B. Baraf, MD; Robert A. Yood, MD; et al. Efficacy and Tolerability of Pegloticase for the Treatment of Chronic Gout in Patients Refractory to Conventional Treatment: Two Randomized Controlled Trials. JAMA. 2011; 306(7):711-720) were examined to determine the number of flares per month and the area under the curve (AUC) of mean serum uric acid (sUA) levels over time (up to 20 weeks). Subjects were given 0.6 mg of colchicine once or twice daily (or a nonsteroidal anti-inflammatory drug) one week before first infusion, which continued throughout the study. The study also included prophylaxis against infusion related reactions (IRs) before each infusion. The subjects were administered oral fexofenadine (60 mg) the evening before and again immediately before, the infusion, as well as acetaminophen 1000 mg) and IV hydrocortisone (200 mg) immediately before the infusion. Data points were obtained from Table 2, which presents the biweekly/monthly flare per patient month. Data points were also identified using a graph digitizer for FIG. 2 of the aforementioned reference. The data was extrapolated to 20 weeks. The AUC of mean sUA levels over time (up to 20 weeks) and the flares per patient month were calculated using the combined weighted average for responders and non-responders for sUA AUC. […] Similar calculations were performed to obtain the monthly data.

The mark [7] stands for this setting: monthly dosing, four weeks after first dose.

In the case of `Cc1nc(-c2ccc(OCC(C)C)c(C#N)c2)sc1C(=O)O` [Febuxostat, febuxostat], the results for the “Flares per patient month * AUC” value in data set [1] (Febuxostat 80 mg/day) and in data set [1] (Febuxostat 120 mg/day) were 23.83 and 33.62, respectively. Besides, the “subjects that required treatment for at least one gout flare” value was 55 out of 255 in data set [2] (Febuxostat 80 mg/day) and 90 out of 250 in data set [2] (Febuxostat 120 mg/day). Further, the “Flares per patient month” value in data set [3] (Febuxostat 80 mg/day) was 0.22 flares per patient month; in data set [3] (Febuxostat 80 mg/day, listed as febuxostat), “at least 0.22 flares per patient month”; in data set [3] (Febuxostat 120 mg/day), 0.36 flares per patient month; in data set [3] (Febuxostat 120 mg/day, listed as febuxostat), ≥ 0.36 flares per patient month. The “Area Under Curve of Mean sUA Levels Over Time Up to 20 Weeks” value is reported as 108.3 in the data set on serum uric acid (sUA) [4] (Febuxostat 80 mg/day) and 93.4 in the data set with serum uric acid (sUA) [4] (Febuxostat 120 mg/day).

On to Pegloticase, for which the figures for the “Flares per patient month * AUC” value in data set [1] (Pegloticase biweekly) and in data set [1] (Pegloticase monthly) were 33.28 and 66.05, respectively. The “treated subjects that developed ADAs” value with ADAs is listed as 89%. Moreover, the “Flares per patient month” value in data set [5] (Pegloticase biweekly) is recorded as 0.52 flares per patient month; in data set [5] (Pegloticase monthly), 0.70 flares per patient month. Moreover, the “non-responders, share of subjects” value with uric acid (monthly dosing cohorts) is recorded as 65%. In addition, the “subjects classified as responders (uric acid below 6 mg/dl for 80% of the time at months three and six)” value in the data set on uric acid (monthly dosing cohorts) was 35%. Moreover, the “mean uric acid levels at four weeks, non-responders” value in the data set with uric acid (setting [7]) is reported as “above 6 mg/dl”. Also, the “mean uric acid levels at four weeks, responders” value in the data set on uric acid (setting [7]) was “above 4 mg/dl”. Moreover, the “AUC of mean sUA levels, non-responders” value with serum uric acid (sUA) [6] (Pegloticase biweekly group, non-responders, cut to 20 weeks) was determined as 102.0. Besides, the “AUC of mean sUA levels, responders” value with serum uric acid (sUA) [6] (Pegloticase biweekly group, responders) turned out to be 12.3. For the same compound, the figures for the “Area Under Curve of Mean sUA Levels Over Time Up to 20 Weeks” value in the data set on serum uric acid (sUA) [6] (Pegloticase biweekly) and in the data set with serum uric acid (sUA) [6] (Pegloticase monthly) were 64.0 and 94.4, respectively.
